Source: patent EP0349354A1, “Peptides PF10 to PF19 from a retro virus HIV, method for the synthesis of these peptides and their use, particularly in diagnostics” (INSTITUT PASTEUR, priority 1988, dated 1990)

Test system: anticorps anti-nef
Assay: ELISA for detection of anti-nef antibodies on coated peptides or nef
Format: binding, humain
Conditions: for nombre de sérums anti-nef positifs ayant réagi: ELISA, out of 31 anti-nef positive sera; for intensité de l'immunoréactivité (OD), Serum 1: Serum 1, anti-nef positive; for intensité de l'immunoréactivité (OD), Serum 1 / intensité de l'immunoréactivité (OD), Serum 2 / intensité de l'immunoréactivité (OD), Serum 3 / intensité de l'immunoréactivité (OD), Serum 4 / intensité de l'immunoréactivité (OD), Serum 5 / intensité de l'immunoréactivité (OD), Serum 6 / intensité de l'immunoréactivité (OD), Serum 7 / intensité de l'immunoréactivité (OD), Serum 8 / intensité de l'immunoréactivité (OD), Serum 9 / intensité de l'immunoréactivité (OD), Serum 10 / intensité de l'immunoréactivité (OD), Serum 11 / intensité de l'immunoréactivité (OD), Serum 12 / intensité de l'immunoréactivité (OD), Serum 13 / intensité de l'immunoréactivité (OD), Serum 14 / intensité de l'immunoréactivité (OD), Serum 15 / intensité de l'immunoréactivité (OD), Serum 16 / intensité de l'immunoréactivité (OD), Serum 17 / intensité de l'immunoréactivité (OD), Serum 18 / intensité de l'immunoréactivité (OD), Serum 19 / intensité de l'immunoréactivité (OD), Serum 20 / intensité de l'immunoréactivité (OD), Serum 21 / intensité de l'immunoréactivité (OD), Serum 22 / intensité de l'immunoréactivité (OD), Serum 23 / intensité de l'immunoréactivité (OD), Serum 24 / intensité de l'immunoréactivité (OD), Serum 25 / intensité de l'immunoréactivité (OD), Serum 26 / intensité de l'immunoréactivité (OD), Serum 27 / intensité de l'immunoréactivité (OD), Serum 28 / intensité de l'immunoréactivité (OD), Serum 29 / intensité de l'immunoréactivité (OD), Serum 30 / intensité de l'immunoréactivité (OD), Serum 31 / intensité de l'immunoréactivité (OD), Serum 32 / intensité de l'immunoréactivité (OD), Serum 33: 500 ng coated per well; for intensité de l'immunoréactivité (OD), Serum 2: Serum 2, anti-nef positive; for intensité de l'immunoréactivité (OD), Serum 3: Serum 3, anti-nef positive; for intensité de l'immunoréactivité (OD), Serum 4: Serum 4, anti-nef positive; for intensité de l'immunoréactivité (OD), Serum 5: Serum 5, anti-nef positive; for intensité de l'immunoréactivité (OD), Serum 6: Serum 6, anti-nef positive; for intensité de l'immunoréactivité (OD), Serum 7: Serum 7, anti-nef positive; for intensité de l'immunoréactivité (OD), Serum 8: Serum 8, anti-nef positive; for intensité de l'immunoréactivité (OD), Serum 9: Serum 9, anti-nef positive; for intensité de l'immunoréactivité (OD), Serum 10: Serum 10, anti-nef positive; for intensité de l'immunoréactivité (OD), Serum 11: Serum 11, anti-nef positive; for intensité de l'immunoréactivité (OD), Serum 12: Serum 12, anti-nef positive; for intensité de l'immunoréactivité (OD), Serum 13: Serum 13, anti-nef positive; for intensité de l'immunoréactivité (OD), Serum 14: Serum 14, anti-nef positive; for intensité de l'immunoréactivité (OD), Serum 15: Serum 15, anti-nef positive; for intensité de l'immunoréactivité (OD), Serum 16: Serum 16, anti-nef positive; for intensité de l'immunoréactivité (OD), Serum 17: Serum 17, anti-nef positive; for intensité de l'immunoréactivité (OD), Serum 18: Serum 18, anti-nef positive; for intensité de l'immunoréactivité (OD), Serum 19: Serum 19, anti-nef positive; for intensité de l'immunoréactivité (OD), Serum 20: Serum 20, anti-nef positive; for intensité de l'immunoréactivité (OD), Serum 21: Serum 21, anti-nef positive; for intensité de l'immunoréactivité (OD), Serum 22: Serum 22, anti-nef positive; for intensité de l'immunoréactivité (OD), Serum 23: Serum 23, anti-nef positive; for intensité de l'immunoréactivité (OD), Serum 24: Serum 24, anti-nef positive; for intensité de l'immunoréactivité (OD), Serum 25: Serum 25, anti-nef positive; for intensité de l'immunoréactivité (OD), Serum 26: Serum 26, anti-nef positive; for intensité de l'immunoréactivité (OD), Serum 27: Serum 27, anti-nef positive; for intensité de l'immunoréactivité (OD), Serum 28: Serum 28, anti-nef positive; for intensité de l'immunoréactivité (OD), Serum 29: Serum 29, anti-nef positive; for intensité de l'immunoréactivité (OD), Serum 30: Serum 30, anti-nef positive; for intensité de l'immunoréactivité (OD), Serum 31: Serum 31, anti-nef positive; for intensité de l'immunoréactivité (OD), Serum 32: Serum 32, anti-nef negative control serum; for intensité de l'immunoréactivité (OD), Serum 33: Serum 33, anti-nef negative control serum
Procedure: Des plaques de microtitration à 96 puits ont été recouvertes une nuit avec 500 ng de protéine nef bactérienne, à 37°C ou avec 500 ng de peptides synthétiques par puits dans 50µl de PBS à pH 7,4. Après saturation avec 400 µl de PBS pH 7,4, contenant 5% de caséine, durant 1 heure à 37°C et lavage avec PBS à pH 7,4, 0,5% de BSA, 0,01% tween, 50 µl de sérums à différentes dilutions ont été ajoutés pendant 2 heures à 37°C. Après le rinçage, 50µl de complexes d'IgG de souris anti-humaine-(H + L)-peroxydase 1:1000 ont été incubés pendant 1 heure à 37°C. Après un nouveau rinçage, 100µl de OPD ont été ajoutés pendant 30mn à température ambiante dans l'obscurité. La réaction de l'enzyme a été arrêtée par addition de 50µl d'acide sulfurique 4N et la densité optique des plaques a été lue à 492 nm/620 nm. Les plaques recouvertes avec la caséine ont été utilisées comme contrôle négatif.
En vue d'étudier la possibilité d'utiliser des peptides synthétiques en tant qu'antigènes pour la détection d'anticorps anti-nef chez des patients infectés par HIV, 8 peptides synthétiques couvrant la totalité de la séquence de la protéine nef de HIV-1 (figure 4) ont été utilisés dans un test ELISA avec 31 sérums anti-nef positifs et 2 sérums anti-nef négatifs utilisés comme contrôle. Les recombinants nef ont été utilisés comme contrôle positif dans les tests ELISA et la caséine a été utilisée comme contrôle négatif. Les résultats de ces expériences sont donnés dans le tableau 4 qui illustre l'essai suivant: Essai ELISA sur 31 sérums anti-nef-positifs et 2 sérums anti-nef- négatifs, soit pré-recouverts avec des peptides synthétiques (PF 11 à PF 18), soit en utilisant nef, la caséine ou un mélange de peptides PF 12 et PF 17. Les sérums ont été sélectionnés au hasard parmi des sérums anti-nef positifs et anti-nefs négatifs testés par la méthode RIA en utilisant ¹²⁵I nef. L'intensité de l'immunoradioactivité est notée "-" pour une densité optique (OD) inférieure à 0,2; "+" pour OD = 0,2 à 0,4; "++" pour OD = 0,4 à 0,8 et "+++" pour OD = 0,8 à 2,0.

## XGGKWSKSSVVGWPTVRERMRRAEPAADGVGAASRDLEKHGAITSSNTA ATNAACAWLEAQEEEEVGZ [PF12, protéine F HIV-1, séquence 1-66]
  nombre de sérums anti-nef positifs ayant réagi: 16
  intensité de l'immunoréactivité (OD), Serum 1: + (pour OD = 0,2 à 0,4)
  intensité de l'immunoréactivité (OD), Serum 2: - (pour une densité optique (OD) inférieure à 0,2)
  intensité de l'immunoréactivité (OD), Serum 3: +++ (pour OD = 0,8 à 2,0)
  intensité de l'immunoréactivité (OD), Serum 4: + (pour OD = 0,2 à 0,4)
  intensité de l'immunoréactivité (OD), Serum 5: - (pour une densité optique (OD) inférieure à 0,2)
  intensité de l'immunoréactivité (OD), Serum 6: - (pour une densité optique (OD) inférieure à 0,2)
  intensité de l'immunoréactivité (OD), Serum 7: +++ (pour OD = 0,8 à 2,0)
  intensité de l'immunoréactivité (OD), Serum 8: +++ (pour OD = 0,8 à 2,0)
  intensité de l'immunoréactivité (OD), Serum 9: +++ (pour OD = 0,8 à 2,0)
  intensité de l'immunoréactivité (OD), Serum 10: - (pour une densité optique (OD) inférieure à 0,2)
  intensité de l'immunoréactivité (OD), Serum 11: ++ (pour OD = 0,4 à 0,8)
  intensité de l'immunoréactivité (OD), Serum 12: ++ (pour OD = 0,4 à 0,8)
  intensité de l'immunoréactivité (OD), Serum 13: - (pour une densité optique (OD) inférieure à 0,2)
  intensité de l'immunoréactivité (OD), Serum 14: ++ (pour OD = 0,4 à 0,8)
  intensité de l'immunoréactivité (OD), Serum 15: - (pour une densité optique (OD) inférieure à 0,2)
  intensité de l'immunoréactivité (OD), Serum 16: - (pour une densité optique (OD) inférieure à 0,2)
  intensité de l'immunoréactivité (OD), Serum 17: - (pour une densité optique (OD) inférieure à 0,2)
  intensité de l'immunoréactivité (OD), Serum 18: - (pour une densité optique (OD) inférieure à 0,2)
  intensité de l'immunoréactivité (OD), Serum 19: +++ (pour OD = 0,8 à 2,0)
  intensité de l'immunoréactivité (OD), Serum 20: - (pour une densité optique (OD) inférieure à 0,2)
  intensité de l'immunoréactivité (OD), Serum 21: ++ (pour OD = 0,4 à 0,8)
  intensité de l'immunoréactivité (OD), Serum 22: - (pour une densité optique (OD) inférieure à 0,2)
  intensité de l'immunoréactivité (OD), Serum 23: - (pour une densité optique (OD) inférieure à 0,2)
  intensité de l'immunoréactivité (OD), Serum 24: - (pour une densité optique (OD) inférieure à 0,2)
  intensité de l'immunoréactivité (OD), Serum 25: +++ (pour OD = 0,8 à 2,0)
  intensité de l'immunoréactivité (OD), Serum 26: +++ (pour OD = 0,8 à 2,0)
  intensité de l'immunoréactivité (OD), Serum 27: - (pour une densité optique (OD) inférieure à 0,2)
  intensité de l'immunoréactivité (OD), Serum 28: + (pour OD = 0,2 à 0,4)
  intensité de l'immunoréactivité (OD), Serum 29: ++ (pour OD = 0,4 à 0,8)
  intensité de l'immunoréactivité (OD), Serum 30: - (pour une densité optique (OD) inférieure à 0,2)
  intensité de l'immunoréactivité (OD), Serum 31: +++ (pour OD = 0,8 à 2,0)
  intensité de l'immunoréactivité (OD), Serum 32: - (pour une densité optique (OD) inférieure à 0,2)
  intensité de l'immunoréactivité (OD), Serum 33: - (pour une densité optique (OD) inférieure à 0,2)

## XCGYFPDWQNYTPGPGVRYPLTFGWCYKLVPVEPDKVEEANKGENTSLL HPVZ [PF15, protéine F HIV-1, séquence 118-167]
  nombre de sérums anti-nef positifs ayant réagi: 4
  intensité de l'immunoréactivité (OD), Serum 1: - (pour une densité optique (OD) inférieure à 0,2)
  intensité de l'immunoréactivité (OD), Serum 2: - (pour une densité optique (OD) inférieure à 0,2)
  intensité de l'immunoréactivité (OD), Serum 3: - (pour une densité optique (OD) inférieure à 0,2)
  intensité de l'immunoréactivité (OD), Serum 4: - (pour une densité optique (OD) inférieure à 0,2)
  intensité de l'immunoréactivité (OD), Serum 5: + (pour OD = 0,2 à 0,4)
  intensité de l'immunoréactivité (OD), Serum 6: + (pour OD = 0,2 à 0,4)
  intensité de l'immunoréactivité (OD), Serum 7: - (pour une densité optique (OD) inférieure à 0,2)
  intensité de l'immunoréactivité (OD), Serum 8: - (pour une densité optique (OD) inférieure à 0,2)
  intensité de l'immunoréactivité (OD), Serum 9: - (pour une densité optique (OD) inférieure à 0,2)
  intensité de l'immunoréactivité (OD), Serum 10: - (pour une densité optique (OD) inférieure à 0,2)
  intensité de l'immunoréactivité (OD), Serum 11: - (pour une densité optique (OD) inférieure à 0,2)
  intensité de l'immunoréactivité (OD), Serum 12: - (pour une densité optique (OD) inférieure à 0,2)
  intensité de l'immunoréactivité (OD), Serum 13: - (pour une densité optique (OD) inférieure à 0,2)
  intensité de l'immunoréactivité (OD), Serum 14: - (pour une densité optique (OD) inférieure à 0,2)
  intensité de l'immunoréactivité (OD), Serum 15: - (pour une densité optique (OD) inférieure à 0,2)
  intensité de l'immunoréactivité (OD), Serum 16: - (pour une densité optique (OD) inférieure à 0,2)
  intensité de l'immunoréactivité (OD), Serum 17: - (pour une densité optique (OD) inférieure à 0,2)
  intensité de l'immunoréactivité (OD), Serum 18: - (pour une densité optique (OD) inférieure à 0,2)
  intensité de l'immunoréactivité (OD), Serum 19: ++ (pour OD = 0,4 à 0,8)
  intensité de l'immunoréactivité (OD), Serum 20: - (pour une densité optique (OD) inférieure à 0,2)
  intensité de l'immunoréactivité (OD), Serum 21: - (pour une densité optique (OD) inférieure à 0,2)
  intensité de l'immunoréactivité (OD), Serum 22: ++ (pour OD = 0,4 à 0,8)
  intensité de l'immunoréactivité (OD), Serum 23: - (pour une densité optique (OD) inférieure à 0,2)
  intensité de l'immunoréactivité (OD), Serum 24: - (pour une densité optique (OD) inférieure à 0,2)
  intensité de l'immunoréactivité (OD), Serum 25: - (pour une densité optique (OD) inférieure à 0,2)
  intensité de l'immunoréactivité (OD), Serum 26: - (pour une densité optique (OD) inférieure à 0,2)
  intensité de l'immunoréactivité (OD), Serum 27: - (pour une densité optique (OD) inférieure à 0,2)
  intensité de l'immunoréactivité (OD), Serum 28: - (pour une densité optique (OD) inférieure à 0,2)
  intensité de l'immunoréactivité (OD), Serum 29: - (pour une densité optique (OD) inférieure à 0,2)
  intensité de l'immunoréactivité (OD), Serum 30: - (pour une densité optique (OD) inférieure à 0,2)
  intensité de l'immunoréactivité (OD), Serum 31: - (pour une densité optique (OD) inférieure à 0,2)
  intensité de l'immunoréactivité (OD), Serum 32: - (pour une densité optique (OD) inférieure à 0,2)
  intensité de l'immunoréactivité (OD), Serum 33: - (pour une densité optique (OD) inférieure à 0,2)
